In patent US10344026B2, “Compositions and methods of targeting mutant K-ras” (NANTBIO, INC., priority 2017, dated 2019):

Legend:
Assay type in all cases: cell-based
[1] = test system: Panc10.05-G12D; experiment: Viability assay (CellTiterBlue, 72 hr) Panc10.05; details: Homo sapiens, Panc1005, GI50, CellTiterBlue, Panc10.05 K-Ras G12D, read-out: 72 hr Cell Viability Panc10.05 (G12D)
Procedure, shortened: (§1)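 Fluorescence at Ex550/Em590, read 3 hr after CellTiterBlue addition, served as the viability signal following 72 hr compound treatment. Wells held 1000 cells, pre-incubated 18 hr at 37 °C, with 0.5% DMSO final. GI50 derived with DMSO as 100% and 100 uM tamoxifen as 0% viability.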

[2] = test system: phospho-ERK in HCC827 (Wild-type); experiment: In-Cell Western phospho-ERK, HCC827; details: Homo sapiens, 1 h; HCC827, one hour treatment; read-out: In-Cell Western HCC827 (Wild-type) Erk (P)
Procedure, shortened: (§2)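 EC50 values come from immunofluorescence quantitation of phosphorylated ERK or Akt in fixed cells exposed to compound for one hour at 0.5% DMSO. Maximal inhibition is defined by 1 uM BEZ235 for Akt and 1 uM MEK Inhibitor II for ERK.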

[3] = test system: Ishikawa (K-Ras wild type cell line); experiment: Viability assay (CellTiterBlue, 72 hr) Ishikawa; details: Homo sapiens, GI50, CellTiterBlue, Ishikawa K-Ras wild-type
Procedure, shortened: as §1

[4] = test system: HCT116-G31D; experiment: Viability assay (CellTiterBlue, 72 hr) HCT116; details: Homo sapiens, HCT-116, GI50, CellTiterBlue, HCT116 K-Ras G13D, read-out: 72 hr Cell Viability HCT116 (G13D)
Procedure, shortened: as §1

[5] = biological target: T1, K-Ras G12D (Homo sapiens, UniProt P01116, G12D); experiment: G-LISA Ras activation, 293H cells transfected with G12D mutant; details: compound 1 hour
T1 construct: expressed in transfected cells; host or cells: 293H cells
T1 sequence (P01116 whole entry G12D): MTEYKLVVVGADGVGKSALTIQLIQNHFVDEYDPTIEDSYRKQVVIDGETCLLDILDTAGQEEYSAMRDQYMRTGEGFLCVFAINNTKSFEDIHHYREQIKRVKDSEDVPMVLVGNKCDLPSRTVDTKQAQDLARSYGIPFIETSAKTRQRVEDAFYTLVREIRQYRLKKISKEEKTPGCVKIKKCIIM
Procedure, shortened: (§3)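 293H cells transfected with 5 μg Ras wild-type or mutant plasmid (Lipofectamine 3000); next day treated with 3.125-25 μM compound for 1 h. Wild-type-transfected cells then stimulated with 100 ng/ml EGF for 2 min. Active Ras measured by G-LISA in ice-cold lysates.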

[6] = test system: A375 (K-Ras wild type cell line); experiment: Viability assay (CellTiterBlue, 72 hr) A375; details: Homo sapiens, A-375, GI50, CellTiterBlue
Procedure, shortened: as §1

[7] = test system: phospho-ERK in A375 (Wild-type); experiment: In-Cell Western phospho-ERK, A375; details: Homo sapiens, A-375, 1 h; A375, one hour treatment; read-out: In-Cell Western A375 (Wild-type) Erk (P)
Procedure, shortened: as §2

[8] = test system: Panc1-G12D; experiment: Viability assay (CellTiterBlue, 72 hr) Panc1; details: Homo sapiens, PANC-1, GI50, CellTiterBlue, Panc1 K-Ras G12D, read-out: 72 hr Cell Viability Panc1 (G12D)
Procedure, shortened: as §1

[9] = test system: phospho-Akt in Panc10.05 (G12D); experiment: In-Cell Western phospho-Akt, Panc10.05; details: Homo sapiens, Panc1005, 1 h; Panc10.05, one hour treatment; read-out: In-Cell Western Panc10.05 (G12D) Akt (P)
Procedure, shortened: as §2

[10] = test system: phospho-ERK in Panc10.05 (G12D); experiment: In-Cell Western phospho-ERK, Panc10.05; details: Homo sapiens, Panc1005, 1 h; Panc10.05, one hour treatment; read-out: In-Cell Western Panc10.05 (G12D) Erk (P)
Procedure, shortened: as §2

[11] = test system: phospho-Akt in Panc1 (G12D); experiment: In-Cell Western phospho-Akt, Panc1; details: Homo sapiens, PANC-1, 1 h; Panc1, one hour treatment; read-out: In-Cell Western Panc1 (G12D) Akt (P)
Procedure, shortened: as §2

[12] = test system: U87-MG (K-Ras wild type cell line); experiment: Viability assay (CellTiterBlue, 72 hr) U87-MG; details: Homo sapiens, U-87 MG, GI50, CellTiterBlue, U87-MG K-Ras wild-type
Procedure, shortened: as §1

[13] = test system: phospho-ERK in Panc1 (G12D); experiment: In-Cell Western phospho-ERK, Panc1; details: Homo sapiens, PANC-1, 1 h; Panc1, one hour treatment; read-out: In-Cell Western Panc1 (G12D) Erk (P)
Procedure, shortened: as §2

[14] = test system: phospho-Akt in HCC827 (Wild-type); experiment: In-Cell Western phospho-Akt, HCC827; details: Homo sapiens, 1 h; HCC827, one hour treatment; read-out: In-Cell Western HCC827 (Wild-type) Akt (P)
Method: In-cell phosphorylation assays for Erk and Akt were performed on several of the compounds and exemplary results are shown in Table 3 below using HCC827 and A375 cell lines for wild type K-Ras and Panc1 and Panc10.05 cell lines for G12D K-Ras mutants. Results are expressed in μM and corresponding structures are shown in FIGS. 2A-2G and Examples 1-152, above.
Cells are seeded in complete medium into black sided, clear-bottom 384-well microplates at 3000 cells/[…]/well. Plates are returned to 37° C. CO2 incubator for 18 hr. Drug is made as 200× in DMSO and diluted into medium to 10×. To each well is added 4 ul 10× test article or controls, and plates are returned to the incubator. Final assay DMSO concentration is 0.5%. After one hour, cells are fixed in formaldehyde, rinsed & permeabilized with triton X-100, and blocked with BSA/Goat serum blocking solution. Primary phospho-Akt and phospho-ERK antibodies are added and plates are incubated overnight at 4° C. Plates are rinsed with Tween-20 wash buffer and secondary antibody (Goat anti-rabbit, Thermofisher) is added. After 2 hours, plates are rinsed in Tween-20 wash buffer, and then PBS. Plates are imaged on the Celigo (Nexcelom) and cellular fluorescence is quantitated. Full inhibition of phospho-Akt is achieved with 1 uM BEZ235 (Sellekchem), while full inhibition of phospho-ERK is achieved with 1 uM MEK Inhibitor II Calbiochem). EC50 values are calculated using Graphpad Prism.

[15] = biological target: T2, wild type K-Ras (Homo sapiens, UniProt P01116); experiment: G-LISA Ras activation, 293H cells transfected with Ras wild-type, EGF stimulated; details: compound 1 hour, then 100 ng/ml EGF 2 minutes
T2 construct: expressed in transfected cells; host or cells: 293H cells
T2 sequence (P01116 whole entry): as the sequence (P01116 whole entry G12D) above, with D12G counted along it
Procedure, shortened: as §3

[16] = test system: HCC827 (K-Ras wild type cell line); experiment: Viability assay (CellTiterBlue, 72 hr) HCC827; details: Homo sapiens, GI50, CellTiterBlue, HCC827 K-Ras wild-type
Procedure, shortened: as §1

[17] = test system: phospho-Akt in A375 (Wild-type); experiment: In-Cell Western phospho-Akt, A375; details: Homo sapiens, A-375, 1 h; A375, one hour treatment; read-out: In-Cell Western A375 (Wild-type) Akt (P)
Procedure, shortened: as §2

Compound | IC50 [1] [µM] | EC50 [2] [µM] | IC50 [3] [µM] | IC50 [4] [µM] | IC50 [5] [µM] | IC50 [6] [µM] | EC50 [7] [µM] | IC50 [8] [µM] | EC50 [9] [µM] | EC50 [10] [µM] | EC50 [11] [µM] | IC50 [12] [µM] | EC50 [13] [µM] | EC50 [14] [µM] | IC50 [15] [µM] | IC50 [16] [µM] | EC50 [17] [µM]
CCc1cc(C(=O)Nc2nc(-c3ccc4c(c3)CCC(=O)N4)cs2)n(C)n1 [Compound 24, 3-ethyl-1-methyl-N-(4-(2-oxo-1,2,3,4-tetrahydroquinolin-6-yl)thiazol-2-yl)-1H-pyrazole-5-carboxamide] | 2.76 | > 25 | > 25 | > 25 | 9.9 | > 25 | > 25 | 0.672 | 13 | > 25 | > 25 | > 25 | > 25 | > 25 | 7.6 | > 25 | –
Cc1nn(C(C)C)c(C)c1C(=O)Nc1nc(-c2ccc3c(c2)CCC(=O)N3)cs1 [Compound 52, 1-isopropyl-3,5-dimethyl-N-(4-(2-oxo-1,2,3,4-tetrahydroquinolin-6-yl)thiazol-2-yl)-1H-pyrazole-4-carboxamide] | 15 | 20 | 13 | 10 | 5.2 | 5 | 14 | 16 | 18 | 4 | > 25 | 14 | 8 | > 25 | 13.9 | 10 | 24
Cc1nc(C2CC2)oc1C(=O)Nc1nc(-c2ccc3c(c2)CCC(=O)N3Cc2cccnc2)cs1 [Compound 72, 2-cyclopropyl-4-methyl-N-(4-(2-oxo-1-(pyridin-3-ylmethyl)-1,2,3,4-tetrahydroquinolin-6-yl)thiazol-2-yl)oxazole-5-carboxamide] | 2 | 14 | 2 | > 25 | 8 | – | – | 13 | 19 | 5 | 2 | – | 3 | 19 | 8 | > 25 | –
Cc1nc(C)c(C(=O)Nc2nc(-c3ccc4c(c3)CCC(=O)N4CCn3cncn3)cs2)o1 [Compound 108, N-(4-(1-(2-(1H-1,2,4-triazol-1-yl)ethyl)-2-oxo-1,2,3,4-tetrahydroquinolin-6-yl)thiazol-2-yl)-2,4-dimethyloxazole-5-carboxamide] | > 25 | > 25 | > 25 | > 25 | > 25 | > 25 | > 25 | > 25 | > 25 | 21 | > 25 | > 25 | > 25 | > 25 | – | > 25 | > 25
Cc1nc(C)c(C(=O)Nc2nc(-c3ccc4c(c3)CCC(=O)N4Cc3nnn[nH]3)cs2)o1 [Compound 109, N-(4-(1-((1H-tetrazol-5-yl)methyl)-2-oxo-1,2,3,4-tetrahydroquinolin-6-yl)thiazol-2-yl)-2,4-dimethyloxazole-5-carboxamide] | > 25 | > 25 | > 25 | > 25 | – | > 25 | > 25 | > 25 | > 25 | > 25 | > 25 | > 25 | > 25 | > 25 | – | > 25 | > 25
COCCN1C(=O)CCc2cc(-c3csc(NC(=O)c4c(C)nn(C(C)C)c4C)n3)ccc21 [Compound 118, 1-isopropyl-N-(4-(1-(2-methoxyethyl)-2-oxo-1,2,3,4-tetrahydroquinolin-6-yl)thiazol-2-yl)-3,5-dimethyl-1H-pyrazole-4-carboxamide] | 0.854 | 1.2 | 4 | 18 | 4.3 | 9 | 10 | 2 | 2 | 0.969 | 26 | 8 | 6 | > 25 | – | 2 | 23
